The results in this text go back to ChEMBL document CHEMBL1201862, “PubChem BioAssay data set” (2004).

The source made the active and inactive calls.

Experiment [1] in a line: Luminescence Cell-Based Dose Retest to Confirm Inhibitors of Cancer Stem Cells. [Related pubchem assays (depositor defined):AID2717, AID2721]. Conditions: Homo sapiens. It is filed as functional, Homo sapiens.
For experiment [2], the target named is T1, Ubiquitin-conjugating enzyme E2 N (Homo sapiens, UniProt P61088).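 Note: Dose-response confirmation in a TR-FRET assay detecting UBC13-driven polyubiquitin chain formation, inhibition measured.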
T1 sequence (P61088 whole entry): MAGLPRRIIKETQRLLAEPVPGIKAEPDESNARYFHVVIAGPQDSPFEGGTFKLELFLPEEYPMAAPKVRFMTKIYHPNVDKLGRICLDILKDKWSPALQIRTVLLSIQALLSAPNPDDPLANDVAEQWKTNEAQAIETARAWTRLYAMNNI
The class given is functional.

Another experiment relates to INS1. Briefly: INS-1E survival protection against cytokine death – cell-based, luminescence, retest, dose response (AID 449756).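 Note: cell death triggered by IL-1 beta plus TNF-alpha plus IFN-gamma mixture; protective hits raise ATP signal compared with cytokine alone wells.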 The class given is functional. Particulars: Rattus norvegicus.
In experiment [3] the target is Luciferin 4-monooxygenase (Photinus pyralis, UniProt P08659). Description: inhibition of purified Photinus pyralis luciferase – biochemical, luminescence, dose response (AID 1891).
The target of experiment [4] is T2, Polyadenylate-binding protein 1 (Homo sapiens, UniProt P11940). Briefly: MLLE binding blockers, Cy5 peptide tracer – biochemical, fluorescence polarization, Cy5-PAM2 peptide, secondary, miRNA deadenylation inhibitor project, dose response (AID 602260). It is filed as functional. Particulars: read-out: IC50_Mean. Background: In fluorescence polarisation assays a small probe gives low polarisation when free and higher when bound to something large.

Experiment [5] deals with T2, Polyadenylate-binding protein 1. Description: MLLE domain peptide-binding blockers, IC50 – biochemical, fluorescence polarization, FITC-PAM2 peptide, dose response (AID 602259). It is filed as functional. Particulars: read-out: IC50_Mean.
The target in experiment [6] is T3, Calpain-2 catalytic subunit (Sus scrofa, UniProt P43367).
T3 sequence (P43367 whole entry): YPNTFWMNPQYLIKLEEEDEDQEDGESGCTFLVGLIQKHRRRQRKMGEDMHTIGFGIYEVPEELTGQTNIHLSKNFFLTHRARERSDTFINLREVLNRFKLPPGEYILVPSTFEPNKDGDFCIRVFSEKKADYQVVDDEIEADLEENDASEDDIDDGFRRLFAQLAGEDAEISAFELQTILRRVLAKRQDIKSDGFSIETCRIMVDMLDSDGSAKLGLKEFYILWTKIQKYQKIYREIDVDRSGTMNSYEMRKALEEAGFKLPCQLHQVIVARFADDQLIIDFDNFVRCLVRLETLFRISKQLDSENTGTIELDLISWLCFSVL
Description: m-calpain protease blockers, concentration series – biochemical, fluorogenic peptide substrate, dose response (AID 1420). The class given is functional.

A short description of experiment [7]: viability of PTEN-deleted HCT116 cells – cell-based, HCT116 PTEN knockout, dose response (AID 1047).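 Note: HCT116 colon tumor cells with PTEN knocked out; cells exposed to compound for 60 hours before readout; potency for loss of cell viability measured by luminescence.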 The class given is functional.
The nature of experiment [8]: viability of HCT116 lacking mutant beta-catenin – cell-based, human colon tumor, dose response (AID 1045).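 Note: HCT116 colon tumor cells with beta catenin knocked out; cells exposed to compound for 60 hours.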 The class given is functional.
A further experiment has as its target Genome polyprotein (dengue virus type 2, UniProt P29990). Description: flavivirus cap methylation enzyme inhibition – biochemical, confirmation dose response, primary screen (AID 588689). The class given is functional.
The next experiment concerns the target T4, Protein skinhead-1 (Caenorhabditis elegans, UniProt P34707).
T4 sequence (P34707 whole entry): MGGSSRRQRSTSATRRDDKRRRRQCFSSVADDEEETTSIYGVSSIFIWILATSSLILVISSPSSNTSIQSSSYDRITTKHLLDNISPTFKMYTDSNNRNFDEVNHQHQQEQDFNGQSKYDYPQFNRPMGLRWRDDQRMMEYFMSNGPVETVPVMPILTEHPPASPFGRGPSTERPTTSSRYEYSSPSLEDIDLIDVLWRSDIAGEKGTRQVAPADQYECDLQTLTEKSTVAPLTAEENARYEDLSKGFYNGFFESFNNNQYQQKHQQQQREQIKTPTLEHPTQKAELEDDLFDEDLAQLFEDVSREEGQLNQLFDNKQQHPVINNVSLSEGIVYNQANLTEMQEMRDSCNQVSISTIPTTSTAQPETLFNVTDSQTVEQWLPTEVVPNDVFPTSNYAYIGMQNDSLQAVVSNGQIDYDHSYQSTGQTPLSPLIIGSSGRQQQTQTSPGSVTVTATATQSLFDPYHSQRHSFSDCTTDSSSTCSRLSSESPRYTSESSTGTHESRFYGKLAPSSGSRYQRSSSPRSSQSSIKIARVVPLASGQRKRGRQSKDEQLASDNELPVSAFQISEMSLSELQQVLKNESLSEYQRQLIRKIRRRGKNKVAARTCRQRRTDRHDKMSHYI
The class given is functional.

The target of experiment [9] is T5, Fatty acid synthase (Homo sapiens, UniProt P49327). Briefly: inhibition of human FAS-TE enzyme activity – biochemical, endpoint fluorescence intensity, uHTS hits, dose response (AID 624327).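 Note: fluorescence from hydrolysis of an O-methyl fluorescein acyl ester substrate by the enzyme.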 The class given is functional.
Experiment [10] addresses T5, Fatty acid synthase. Briefly: inhibition of human FAS-TE enzyme activity – biochemical, kinetic fluorescence intensity, dose response (AID 624326).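 Note: rate of fluorescence rise from hydrolysis of a fluorogenic O-methyl fluorescein ester substrate.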 It is filed as functional.
The next experiment relates to Vero. Description: cells. It is filed as functional. Particulars: Chlorocebus sabaeus.
Experiment [11] can be described thus: viability of uninfected HEp-2 cells – cell-based, HTS, cytotoxicity control for RSV inhibitor project, dose response (AID 2410). It is filed as functional. Particulars: human respiratory syncytial virus.
Experiment [12] addresses T6, Histone-lysine N-methyltransferase NSD2 (Homo sapiens, UniProt O96028).
T6 sequence (O96028 whole entry): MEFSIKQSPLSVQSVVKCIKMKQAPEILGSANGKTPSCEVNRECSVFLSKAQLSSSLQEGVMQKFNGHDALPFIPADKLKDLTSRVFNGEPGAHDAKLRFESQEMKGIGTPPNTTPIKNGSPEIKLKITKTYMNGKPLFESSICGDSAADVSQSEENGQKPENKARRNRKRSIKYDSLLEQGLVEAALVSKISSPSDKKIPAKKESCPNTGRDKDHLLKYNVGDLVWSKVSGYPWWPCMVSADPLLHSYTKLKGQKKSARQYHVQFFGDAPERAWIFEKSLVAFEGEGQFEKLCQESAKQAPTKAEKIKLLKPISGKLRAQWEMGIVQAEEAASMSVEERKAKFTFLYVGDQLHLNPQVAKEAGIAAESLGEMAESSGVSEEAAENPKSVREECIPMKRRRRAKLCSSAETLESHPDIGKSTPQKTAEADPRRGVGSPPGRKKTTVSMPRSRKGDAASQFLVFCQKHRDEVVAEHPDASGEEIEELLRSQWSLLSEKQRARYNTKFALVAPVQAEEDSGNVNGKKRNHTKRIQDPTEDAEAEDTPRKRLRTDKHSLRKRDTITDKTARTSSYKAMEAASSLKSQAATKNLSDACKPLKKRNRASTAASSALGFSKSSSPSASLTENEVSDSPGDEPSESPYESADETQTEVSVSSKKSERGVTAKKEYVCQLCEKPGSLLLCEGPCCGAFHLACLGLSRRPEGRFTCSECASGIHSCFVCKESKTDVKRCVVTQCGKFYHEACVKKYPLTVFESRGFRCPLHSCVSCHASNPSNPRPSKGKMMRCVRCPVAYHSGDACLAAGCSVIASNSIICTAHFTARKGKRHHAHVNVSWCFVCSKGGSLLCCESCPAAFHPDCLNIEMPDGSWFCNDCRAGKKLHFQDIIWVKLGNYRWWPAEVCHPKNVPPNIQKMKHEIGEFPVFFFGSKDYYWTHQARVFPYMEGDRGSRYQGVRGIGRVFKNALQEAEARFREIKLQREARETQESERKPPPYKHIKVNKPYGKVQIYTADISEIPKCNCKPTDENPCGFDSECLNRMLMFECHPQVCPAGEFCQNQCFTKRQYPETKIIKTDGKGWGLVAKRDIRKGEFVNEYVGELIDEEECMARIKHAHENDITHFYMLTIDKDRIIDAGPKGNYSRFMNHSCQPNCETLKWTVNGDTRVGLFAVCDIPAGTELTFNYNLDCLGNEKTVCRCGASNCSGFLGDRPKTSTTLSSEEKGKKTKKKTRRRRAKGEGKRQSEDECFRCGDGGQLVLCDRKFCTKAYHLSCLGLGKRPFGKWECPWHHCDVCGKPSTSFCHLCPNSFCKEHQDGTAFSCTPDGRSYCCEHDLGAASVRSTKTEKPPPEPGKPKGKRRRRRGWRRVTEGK
It is filed as biochemical.

The term AC50 denotes the midpoint of the concentration-response curve, whichever way the signal moves. In general, EC50 refers to the concentration needed to bring the measured effect to its halfway point. Usually CC50 stands for the concentration that lowers cell viability or growth by half.

T2 sequence (P11940 whole entry): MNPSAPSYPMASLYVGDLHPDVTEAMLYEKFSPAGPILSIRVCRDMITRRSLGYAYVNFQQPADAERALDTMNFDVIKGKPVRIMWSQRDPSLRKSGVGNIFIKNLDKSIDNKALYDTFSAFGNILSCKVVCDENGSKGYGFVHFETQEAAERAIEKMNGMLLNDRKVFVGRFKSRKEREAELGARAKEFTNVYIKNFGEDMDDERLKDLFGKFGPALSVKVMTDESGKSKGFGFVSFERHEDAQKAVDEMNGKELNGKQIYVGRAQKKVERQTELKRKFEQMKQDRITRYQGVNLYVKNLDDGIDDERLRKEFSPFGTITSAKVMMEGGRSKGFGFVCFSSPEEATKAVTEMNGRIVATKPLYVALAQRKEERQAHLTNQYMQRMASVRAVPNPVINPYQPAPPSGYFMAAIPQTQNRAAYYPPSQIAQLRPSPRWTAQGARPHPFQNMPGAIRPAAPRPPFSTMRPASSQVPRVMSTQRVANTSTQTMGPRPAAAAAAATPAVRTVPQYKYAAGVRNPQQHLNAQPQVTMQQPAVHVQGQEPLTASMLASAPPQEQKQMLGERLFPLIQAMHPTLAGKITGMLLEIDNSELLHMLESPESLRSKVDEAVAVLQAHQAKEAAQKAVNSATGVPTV
Chain of Genome polyprotein (P29990 2492-3391 limits assumed): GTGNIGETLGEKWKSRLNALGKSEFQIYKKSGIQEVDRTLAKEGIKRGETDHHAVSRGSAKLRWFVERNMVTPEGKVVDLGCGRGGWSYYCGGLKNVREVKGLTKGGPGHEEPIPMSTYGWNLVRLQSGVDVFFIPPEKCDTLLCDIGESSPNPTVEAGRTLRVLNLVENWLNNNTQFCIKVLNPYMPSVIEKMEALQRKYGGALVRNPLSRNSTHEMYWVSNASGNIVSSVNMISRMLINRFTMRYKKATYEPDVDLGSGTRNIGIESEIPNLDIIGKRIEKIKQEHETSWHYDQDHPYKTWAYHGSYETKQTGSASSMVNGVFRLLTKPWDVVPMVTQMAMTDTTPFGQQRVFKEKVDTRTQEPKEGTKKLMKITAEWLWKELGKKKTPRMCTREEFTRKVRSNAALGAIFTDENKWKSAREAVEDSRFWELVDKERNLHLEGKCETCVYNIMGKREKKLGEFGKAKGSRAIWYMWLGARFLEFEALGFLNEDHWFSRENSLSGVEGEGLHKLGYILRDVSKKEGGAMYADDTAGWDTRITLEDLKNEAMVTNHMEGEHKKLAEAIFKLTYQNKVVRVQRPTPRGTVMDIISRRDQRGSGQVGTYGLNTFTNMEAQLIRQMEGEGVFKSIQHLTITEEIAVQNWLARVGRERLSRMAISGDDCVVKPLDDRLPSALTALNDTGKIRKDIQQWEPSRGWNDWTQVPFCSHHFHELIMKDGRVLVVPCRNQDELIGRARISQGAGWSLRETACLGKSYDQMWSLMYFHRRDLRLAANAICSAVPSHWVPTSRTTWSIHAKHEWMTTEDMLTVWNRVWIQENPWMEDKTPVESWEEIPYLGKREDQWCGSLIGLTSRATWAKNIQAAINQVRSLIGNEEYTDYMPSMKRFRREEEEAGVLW
T5 sequence (P49327 whole entry): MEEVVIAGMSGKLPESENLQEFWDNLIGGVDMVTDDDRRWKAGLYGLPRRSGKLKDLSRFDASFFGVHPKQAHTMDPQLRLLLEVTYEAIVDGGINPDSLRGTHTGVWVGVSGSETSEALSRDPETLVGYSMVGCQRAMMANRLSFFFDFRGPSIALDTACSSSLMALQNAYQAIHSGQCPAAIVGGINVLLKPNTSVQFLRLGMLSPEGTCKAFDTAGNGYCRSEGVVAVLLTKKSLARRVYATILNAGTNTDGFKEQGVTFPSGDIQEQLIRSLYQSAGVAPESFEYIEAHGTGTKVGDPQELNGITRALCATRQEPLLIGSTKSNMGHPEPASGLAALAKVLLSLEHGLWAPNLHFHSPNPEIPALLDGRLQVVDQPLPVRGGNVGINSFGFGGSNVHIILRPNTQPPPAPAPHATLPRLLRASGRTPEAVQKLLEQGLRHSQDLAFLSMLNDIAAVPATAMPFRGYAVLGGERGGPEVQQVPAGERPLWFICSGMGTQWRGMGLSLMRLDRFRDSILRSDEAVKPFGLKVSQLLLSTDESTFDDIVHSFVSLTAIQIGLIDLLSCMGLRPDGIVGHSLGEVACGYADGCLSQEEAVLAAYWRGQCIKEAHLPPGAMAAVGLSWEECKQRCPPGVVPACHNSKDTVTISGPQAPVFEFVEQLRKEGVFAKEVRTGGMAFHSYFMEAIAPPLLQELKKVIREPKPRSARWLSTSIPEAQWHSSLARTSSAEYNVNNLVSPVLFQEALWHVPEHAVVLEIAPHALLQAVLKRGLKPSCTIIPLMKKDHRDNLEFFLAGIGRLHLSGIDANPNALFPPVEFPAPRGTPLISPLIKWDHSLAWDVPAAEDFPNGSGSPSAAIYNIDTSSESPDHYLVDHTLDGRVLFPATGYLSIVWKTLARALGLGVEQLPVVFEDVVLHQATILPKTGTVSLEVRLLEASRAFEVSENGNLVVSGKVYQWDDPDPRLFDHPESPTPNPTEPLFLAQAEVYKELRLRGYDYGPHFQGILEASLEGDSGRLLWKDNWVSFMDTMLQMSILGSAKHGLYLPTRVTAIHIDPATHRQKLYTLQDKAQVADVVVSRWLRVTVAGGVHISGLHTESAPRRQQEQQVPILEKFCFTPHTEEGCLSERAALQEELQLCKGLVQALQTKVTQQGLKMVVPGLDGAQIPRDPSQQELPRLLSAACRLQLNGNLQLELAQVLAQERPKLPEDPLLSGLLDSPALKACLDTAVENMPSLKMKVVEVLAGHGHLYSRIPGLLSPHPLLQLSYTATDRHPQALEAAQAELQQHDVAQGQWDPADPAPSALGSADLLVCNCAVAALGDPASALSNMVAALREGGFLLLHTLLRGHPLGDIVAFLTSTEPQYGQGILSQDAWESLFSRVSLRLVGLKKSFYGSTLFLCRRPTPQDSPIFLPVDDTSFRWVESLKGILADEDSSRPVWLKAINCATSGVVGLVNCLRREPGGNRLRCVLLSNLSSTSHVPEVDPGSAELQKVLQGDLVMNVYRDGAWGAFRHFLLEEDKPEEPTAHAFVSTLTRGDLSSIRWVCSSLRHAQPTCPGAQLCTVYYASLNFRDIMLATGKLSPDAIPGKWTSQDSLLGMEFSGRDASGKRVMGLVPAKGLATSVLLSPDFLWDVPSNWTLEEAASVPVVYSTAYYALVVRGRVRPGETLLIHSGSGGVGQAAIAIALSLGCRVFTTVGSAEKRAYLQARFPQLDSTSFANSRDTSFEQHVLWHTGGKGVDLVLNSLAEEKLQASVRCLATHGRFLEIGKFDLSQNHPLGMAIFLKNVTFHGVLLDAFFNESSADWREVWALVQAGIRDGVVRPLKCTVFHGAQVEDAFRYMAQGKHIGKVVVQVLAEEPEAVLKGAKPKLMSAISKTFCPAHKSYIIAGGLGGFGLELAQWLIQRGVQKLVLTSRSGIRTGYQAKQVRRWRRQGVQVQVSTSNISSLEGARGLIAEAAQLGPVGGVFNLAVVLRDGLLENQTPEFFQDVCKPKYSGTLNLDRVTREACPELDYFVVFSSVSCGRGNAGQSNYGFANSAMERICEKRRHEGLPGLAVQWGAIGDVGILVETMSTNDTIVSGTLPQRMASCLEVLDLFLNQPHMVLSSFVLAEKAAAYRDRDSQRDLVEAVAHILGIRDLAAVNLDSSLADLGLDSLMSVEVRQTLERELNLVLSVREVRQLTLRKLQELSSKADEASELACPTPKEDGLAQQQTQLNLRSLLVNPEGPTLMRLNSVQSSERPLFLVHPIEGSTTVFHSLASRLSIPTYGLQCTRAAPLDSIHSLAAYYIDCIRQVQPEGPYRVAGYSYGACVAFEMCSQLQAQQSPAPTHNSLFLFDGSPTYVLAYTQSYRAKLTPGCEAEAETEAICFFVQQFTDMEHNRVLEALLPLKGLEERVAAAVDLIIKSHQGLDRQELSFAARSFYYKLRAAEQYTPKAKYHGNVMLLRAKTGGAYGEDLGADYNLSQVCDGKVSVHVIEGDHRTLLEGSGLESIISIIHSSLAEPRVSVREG
Chain of Luciferin 4-monooxygenase (P08659 whole entry): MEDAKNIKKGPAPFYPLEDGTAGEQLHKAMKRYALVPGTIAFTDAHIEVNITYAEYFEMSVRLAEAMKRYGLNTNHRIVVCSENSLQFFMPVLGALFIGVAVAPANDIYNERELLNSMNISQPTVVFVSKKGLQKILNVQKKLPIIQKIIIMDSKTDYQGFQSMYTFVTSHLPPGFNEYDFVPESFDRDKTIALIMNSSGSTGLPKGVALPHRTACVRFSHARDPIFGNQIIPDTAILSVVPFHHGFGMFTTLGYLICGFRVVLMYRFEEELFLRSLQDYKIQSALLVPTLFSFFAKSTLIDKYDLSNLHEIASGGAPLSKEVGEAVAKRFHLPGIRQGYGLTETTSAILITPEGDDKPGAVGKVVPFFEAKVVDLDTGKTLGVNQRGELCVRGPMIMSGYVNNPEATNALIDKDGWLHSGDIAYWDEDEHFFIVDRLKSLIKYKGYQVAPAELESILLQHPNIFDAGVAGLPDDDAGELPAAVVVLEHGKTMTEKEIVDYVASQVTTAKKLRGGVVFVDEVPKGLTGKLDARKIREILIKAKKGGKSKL

For the compound `COc1cc2sc(-c3ccccc3OC)c(-c3ccc(OCCN4CCCCC4)cc3)c2cc1OC`, the AC50 was 6.45 µM (active) in experiment [1] and 7.69 µM (active) with INS1. In [2], the IC50 is > 20 µM (inactive).

Consider `CC(=O)c1ccc(Sc2ccc(C(C)=O)cc2)cc1`, for which the IC50 in [2] was > 20 µM (inactive).

For `O=c1[nH]c2ccc(NC(=S)Nc3ccccc3Cl)cc2[nH]1`, the EC50 in [3] is on record as > 112 µM (not active). For the same compound, the IC50 in [4] and in experiment [5] was > 66 µM (inactive) in each case.

On to `O=C(O)c1ccc(CSc2nc[nH]n2)cc1`, for which the IC50 in [6] is < 0.4 µM (not active).

On to `CN1CCN(c2ccc(S(=O)(=O)N3CCCCC3)cc2NC(=O)c2ccc3ccccc3c2)CC1`, for which the EC50 in [7] is 16 µM (active); in experiment [8], 17.8 µM (active). For the same compound, the IC50 in experiment [2] was > 20 µM (inactive).

For `COc1ccc(/C=C2/SC(=S)N(NS(=O)(=O)c3ccc(C)cc3)C2=O)cc1`, at Genome polyprotein, the IC50 is 56.9 µM (active).

Turning to `Cc1cc(C)c(NC(=S)NC(=O)c2ccc(-c3ccccc3)cc2)c(C)c1`, the IC50 in [6] is 12.4 µM (not active).

As to `c1ccc(SCc2cc(-c3ccccc3)no2)cc1`, the IC50 at Protein skinhead-1 is 17.6 µM (active).

For the compound `Cc1cc2cc(CN=C(S)NCc3ccccc3)ccc2n1C`, the IC50 on Protein skinhead-1 is > 100 µM (inactive).

Consider `Cc1cc(Br)cn2c(Cc3ccsc3)c(-c3ccccc3)nc12`, for which the IC50 at Protein skinhead-1 is > 100 µM (inactive).

Turning to `Cc1noc(C)c1-c1csc(N2CCC(C(N)=O)CC2)n1`, the IC50 in [4] and in experiment [5] was > 66 µM (inactive) each time.

Turning to `c1ccc(CSc2ncnc3sccc23)cc1`, the IC50 on Protein skinhead-1 is 92.7 µM (inactive).

Turning to `CCOC(=O)CNC(=O)CSc1nc(-c2cccc(C)c2)ns1`, the IC50 in experiment [4] and in experiment [5] was > 66 µM (inactive) throughout.

Turning to `CCCOc1ccc(NC(=O)CC2C(=O)N(C)C(=S)N2Cc2cccs2)cc1` (stereo unspecified), the figures for the IC50 at Fatty acid synthase [9] and on Fatty acid synthase [10] were 9.62 µM (active) and 7.42 µM (active), respectively.

Take `Cc1ccc(C(C(=O)NCC2CCCO2)N(C(=O)c2snc(C(N)=O)c2N)c2ccc(F)cc2)o1` (stereo unspecified): the IC50 in experiment [2] is > 20 µM (inactive).

Take `CCOc1ccc(NS(=O)(=O)c2ccc(NC(=S)NC(=O)CC(C)C)cc2)cc1`: in experiment [6], the IC50 is listed as 6.89 µM (not active).

On to `Cc1cc2cc(CNC(=O)C3CC3)ccc2n1C`, for which, at Protein skinhead-1, the IC50 was > 100 µM (inactive).

For `O=C(N=Nc1c(O)[nH]c2ccc(Cl)cc12)c1cc(-c2cccs2)nc2ccccc12`, in [6], the IC50 is listed as 10.3 µM (not active).

Turning to `O=C(COC(=O)c1cc([N+](=O)[O-])ccc1NCc1ccccc1)NC1CCCCC1`, in the experiment on Vero, the CC50 was > 25 µM (active). For the same compound, the IC50 at Fatty acid synthase [9] is 1.31 µM (active); at Fatty acid synthase [10], 1.64 µM (active).

With `O=C(c1ccc(NC(=O)C(c2ccccc2)c2ccccc2)cc1)c1ccc(C(=O)O)c(C(=O)O)c1`, the IC50 at Genome polyprotein is 57.6 µM (active).

`CCN1CCN(Cc2ccc(NC(=O)c3cc(NC(=O)c4cnn(-c5ccccc5)c4N)cc(OC)c3)cc2C(F)(F)F)CC1`: the AC50 in experiment [1] is 11.7 µM (active); in the experiment on INS1 it was 19.6 µM (active). Also, the IC50 in experiment [2] was > 20 µM (inactive).

As for `O=C(Nc1cccc(Cl)c1)c1cc(-c2ccco2)on1`, the IC50 on Protein skinhead-1 is > 100 µM (inactive).

As for `CCOc1ccc(OCC)c(S(=O)(=O)NCCOC23CC4CC(CC(C4)C2)C3)c1`, in experiment [6], the IC50 was 8.71 µM (not active). Moreover, in the experiment with INS1, the AC50 was 8.76 µM (active).

Turning to `O=C1Nn2c(nc3c(c2=O)CCCC3)/C1=N/Nc1cccc(C(F)(F)F)c1`, the CC50 in experiment [11] was 25.1 µM (active). Besides, at Genome polyprotein, the IC50 is 28.7 µM (active). In [12], the AC50 was > 20 µM (inactive).

As for `COCCOc1ccc(C(F)(F)F)cc1NC(=O)COC(=O)c1cc([N+](=O)[O-])ccc1N1CCOCC1`, the IC50 at Fatty acid synthase [9] is 5.58 µM (active); on Fatty acid synthase [10], 6.42 µM (active).

As for `CC(=O)NNc1nc(-c2ccccc2)cs1`, the IC50 on Fatty acid synthase [9] is 18.6 µM (active); at Fatty acid synthase [10] it was 18.2 µM (active).

On to `CCC(c1nnnn1Cc1ccc(F)cc1)N(CCCO)Cc1cc2cc3c(cc2nc1O)OCO3` (stereo unspecified), for which the IC50 in experiment [4] and in [5] was > 66 µM (inactive) each time.
